# US11555055B2, “Peptide inhibitors of insulin-degrading enzyme” (The Regents of the University of California, priority 2017, dated 2023)
# Where a SMILES comes first, the peptide text is derived from it. Bridges are numbered along the chain shown (N, C = ends).
# Biological target: T1, IDE (Homo sapiens, UniProt P14735)
# T1 construct: made in house; host or cells: bacteria
# T1 sequence (P14735 1-1019): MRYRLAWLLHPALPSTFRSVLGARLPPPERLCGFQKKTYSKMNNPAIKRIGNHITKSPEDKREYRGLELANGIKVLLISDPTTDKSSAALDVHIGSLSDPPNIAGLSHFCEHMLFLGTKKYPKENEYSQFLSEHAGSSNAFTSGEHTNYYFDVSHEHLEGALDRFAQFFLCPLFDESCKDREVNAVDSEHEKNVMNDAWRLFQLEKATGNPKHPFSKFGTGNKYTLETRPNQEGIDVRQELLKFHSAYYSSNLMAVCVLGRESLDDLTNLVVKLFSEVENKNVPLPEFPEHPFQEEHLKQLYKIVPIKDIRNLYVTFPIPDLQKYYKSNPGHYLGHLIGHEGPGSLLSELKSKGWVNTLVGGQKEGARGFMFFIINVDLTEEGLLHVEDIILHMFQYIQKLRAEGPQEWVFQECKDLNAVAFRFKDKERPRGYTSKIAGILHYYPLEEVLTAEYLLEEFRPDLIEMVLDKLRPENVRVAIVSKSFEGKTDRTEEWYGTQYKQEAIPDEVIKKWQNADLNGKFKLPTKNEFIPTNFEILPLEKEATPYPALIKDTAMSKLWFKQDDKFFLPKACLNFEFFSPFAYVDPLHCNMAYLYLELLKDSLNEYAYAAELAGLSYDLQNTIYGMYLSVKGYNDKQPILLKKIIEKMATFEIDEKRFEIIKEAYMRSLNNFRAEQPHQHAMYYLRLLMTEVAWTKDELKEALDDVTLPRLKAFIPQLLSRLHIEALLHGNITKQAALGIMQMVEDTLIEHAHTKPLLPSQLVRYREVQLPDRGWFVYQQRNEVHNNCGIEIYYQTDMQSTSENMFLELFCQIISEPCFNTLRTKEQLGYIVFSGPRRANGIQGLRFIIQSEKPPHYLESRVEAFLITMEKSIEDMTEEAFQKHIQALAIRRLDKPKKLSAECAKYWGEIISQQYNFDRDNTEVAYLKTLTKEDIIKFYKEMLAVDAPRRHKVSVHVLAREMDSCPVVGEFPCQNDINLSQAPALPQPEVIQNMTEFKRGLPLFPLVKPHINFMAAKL
# Assay: Vulnerability of peptides to degradation by IDE: potency after 0 or 4 h pre-incubation with IDE, FRET1 assay
# Assay type: biochemical
# Conditions: 4-h incubation with IDE
# Excerpt: FIG. 2. Vulnerability of peptides to degradation by IDE assessed by activity assays.
# Because IDE is a peptidase, it was critical to determine whether the peptides were degraded by IDE over time. […] Because this peptide is capable of forming a disulfide bond between its two cysteines, but was not deliberately cyclized prior to testing, we suspect that the peptide (and related variants) may have cyclized over time, contributing to its stability. […]
# Degradation Assays—IDE activity was quantified by monitoring the degradation of (7-methoxycoumarin-4-yl)acetic acid-[…](2,4-dinitrophenyl) (FRET1, 5 μM) (49,55), fluoresceinated and biotinylated amyloid β-protein (FAβB; 500 nM) or recombinant human insulin (50 nM) in PBS supplemented with 0.05% BSA. FRET1 degradation was measured by changes in fluorescence (λex=340 nm, λem=420 nm); FAβB degradation was monitored by fluorescence polarization (λex=488 nm, λem=525 nm), as described (56); and insulin degradation was quantified by ELISA. […] For quantitation of insulin degradation in primary murine skin fibroblasts, cells (1×10^5/well) were plated in 96-well plates and maintained in DMEM supplemented with 10% fetal bovine serum (FBS), 2 mM glutamine, penicillin and streptomycin. […]
compound,measurement,value
CC(C)C[C@H](NC(=O)[C@H](CO)NC(=O)[C@@H](N)CCC(N)=O)C(=O)N1CCC[C@H]1C(=O)N[C@@H](Cc1c[nH]c2ccccc12)C(=O)N[C@H]1CSSC[C@@H](C(=O)N[C@H](C(=O)N[C@H](C(N)=O)[C@@H](C)O)C(C)C)NC(=O)[C@H](Cc2c[nH]cn2)NC(=O)[C@@H]2CCCN2C(=O)[C@H](Cc2ccc(O)cc2)NC1=O [Peptide P12-3A] (H-QSLPWCYPHCVT-NH2; disulfide 6-10 (inferred)),increase in potency at the 4-h time point relative to t=0,1 fold
